Results from article PMC8279981, “A first-in-human, phase 1 study of the NEDD8 activating enzyme E1 inhibitor TAS4464 in patients with advanced solid tumors” (Investigational New Drugs, 2021).

System: patients with advanced or metastatic solid tumors
Experiment: Phase 1 study: treatment-related adverse events (NCI CTCAE v4.03)
Type: in vivo, human
Details: for Anemia (treatment-related adverse event) / Blood bilirubin increased (treatment-related adverse event) / Decreased appetite (treatment-related adverse event) / Diarrhea (treatment-related adverse event) / Fatigue (treatment-related adverse event) / GGT increased (treatment-related adverse event) / Hypoalbuminemia (treatment-related adverse event) / Malaise (treatment-related adverse event) / Nausea (treatment-related adverse event) / Neuropathy peripheral (treatment-related adverse event) / Pyrexia (treatment-related adverse event) / Rash (treatment-related adverse event) / Vomiting (treatment-related adverse event) / WBC decreased (treatment-related adverse event) / ALP increased (treatment-related adverse event) / ALT increased (treatment-related adverse event) / AST increased (treatment-related adverse event): Grade ≥ 3
Experimental: The highest non-severely toxic dose was derived from a dog toxicology study and was used to calculate a clinical starting dose of 10 mg/m^2, which corresponds to one-sixth of the human-equivalent dose. The maximum tolerated dose (MTD) of TAS4464 was investigated using an accelerated titration design. Initially, the starting TAS4464 dose was 10 mg/m^2 and was followed by an initial accelerated stage (i.e., weekly dosing phase) with 100% dose-step increments (level 1: 10 mg/m^2, level 2: 20 mg/m^2, level 3: 40 mg/m^2, and level 4: 56 mg/m^2). The 100% dose-step increments continued until the occurrence of a grade ≥ 2 drug-related toxicity within Cycle 1; dose-limiting toxicity (DLT) within Cycle 1; the next dose level reaching 60 mg/m^2; or any safety concerns. Thereafter, 40% increments were employed in the standard stage.
In the standard stage, three to six patients were to be enrolled, and the dose was escalated in 40% increments if none of the first three patients experienced a DLT. If one patient experienced a DLT, three additional patients were to be enrolled at the same dose level. If two of three or two of six patients experienced a DLT, the dose escalation was to be ceased. […] Additionally, DLT criteria regarding abnormal liver function and discontinuation criteria for study drug administration were added. The TAS4464 dose level for Day 1 of Cycle 1 was then set to 40 mg/m^2 (level 3).
Therefore, TAS4464 was administered every 7 days by 1-h intravenous infusion (± 10 min) at the dose assigned to each level. Study treatment was repeated every 28 days. The dosing regimens of each cohort are summarized in Supplementary Fig. 1.
Secondary objectives included assessment of AEs, treatment-related AEs, objective response rate (ORR), disease control rate (DCR), progression-free survival (PFS), and PK, pharmacodynamic, and pharmacogenomic (PGx) parameters with TAS4464 administration. The National Cancer Institute Common Terminology Criteria for Adverse Events (NCI CTCAE) v4.03 [17] was used to assess the severity of AEs. […] RECIST v1.1 [16] was used to determine clinical response, and all computed tomography images were assessed by the physician at the study site after completion of the imaging procedure. The ORR was defined as the percentage of patients with the best overall response of complete response (CR) or partial response (PR). The DCR was the percentage of patients with a best overall response of CR, PR, stable disease (SD), or non-CR/non-progressive disease (PD). PFS was defined as the time from the date of enrollment until the date of investigator-assessed radiological disease progression or death due to any cause, whichever occurred first.

[1] = weekly dosing Level 1 (10 mg/m^2), n = 1
[2] = weekly dosing Level 2 (20 mg/m^2), n = 1
[3] = weekly dosing Level 3 (40 mg/m^2), n = 3
[4] = weekly dosing Level 4 (56 mg/m^2), n = 5
[5] = weekly dosing with lead-in Level 3 (20 → 40 mg/m^2), n = 3
[6] = weekly dosing with lead-in Level 4 (20 → 56 mg/m^2), n = 3

`CCOc1cccc(F)c1C#Cc1cn([C@@H]2O[C@H](CNS(N)(=O)=O)[C@@H](O)[C@H]2O)c2ncnc(N)c12` [TAS4464] was tested, and the “Anemia (treatment-related adverse event)” value (Total, N = 16) was 0 n (%), the “Blood bilirubin increased (treatment-related adverse event)” value (shortened to “Blood bilirubin increased”) (Total, N = 16) was 0 n (%) and the “Decreased appetite (treatment-related adverse event)” value (Total, N = 16) was 0 n (%). For the same compound, the “Diarrhea (treatment-related adverse event)” value (shortened to “Diarrhea”) (Total, N = 16) was 0 n (%), the “Fatigue (treatment-related adverse event)” value (from here on “Fatigue”) (Total, N = 16) was 0 n (%) and the “GGT increased (treatment-related adverse event)” value (“GGT increased” below) (Total, N = 16) was 3 (18.8) n (%). For the same compound, the “Hypoalbuminemia (treatment-related adverse event)” value (“Hypoalbuminemia” for short) (Total, N = 16) was 0 n (%), the “Malaise (treatment-related adverse event)” value (“Malaise” below) (Total, N = 16) was 0 n (%) and the “Nausea (treatment-related adverse event)” value (Total, N = 16) was 0 n (%). For the same compound, the “Neuropathy peripheral (treatment-related adverse event)” value (shortened to “Neuropathy peripheral”) (Total, N = 16) was 0 n (%), the “Pyrexia (treatment-related adverse event)” value (shortened to “Pyrexia”) (Total, N = 16) was 0 n (%) and the “Rash (treatment-related adverse event)” value (Total, N = 16) was 0 n (%). The “Vomiting (treatment-related adverse event)” value (“Vomiting” for short) (Total, N = 16) was 0 n (%), the “WBC decreased (treatment-related adverse event)” value (“WBC decreased” for short) (Total, N = 16) was 1 (6.3) n (%) and the “ALP increased (treatment-related adverse event)” value (from here on “ALP increased”) [1] was 0 n (%). For the same compound, the “ALT increased (treatment-related adverse event)” value [1] was 0 n (%), the “AST increased (treatment-related adverse event)” value [1] was 0 n (%) and the “Anemia (treatment-related adverse event)” value [1] was 0 n (%). For the same compound, the “Blood bilirubin increased” value [1] was 0 n (%), the “Decreased appetite (treatment-related adverse event)” value [1] was 0 n (%) and the “Diarrhea” value [1] was 0 n (%). For the same compound, the “Fatigue” value [1] was 0 n (%), the “GGT increased” value [1] was 0 n (%) and the “Hypoalbuminemia” value [1] was 0 n (%). The “Malaise” value [1] was 0 n (%), the “Nausea (treatment-related adverse event)” value [1] was 0 n (%) and the “Neuropathy peripheral” value [1] was 0 n (%). The “Pyrexia” value [1] was 0 n (%), the “Rash (treatment-related adverse event)” value [1] was 0 n (%) and the “Vomiting” value [1] was 0 n (%). The “WBC decreased” value [1] was 0 n (%), the “ALP increased” value [2] was 0 n (%) and the “ALT increased (treatment-related adverse event)” value [2] was 0 n (%). For the same compound, the “AST increased (treatment-related adverse event)” value [2] was 0 n (%), the “Anemia (treatment-related adverse event)” value [2] was 0 n (%) and the “Blood bilirubin increased” value [2] was 0 n (%). The “Decreased appetite (treatment-related adverse event)” value [2] was 0 n (%), the “Diarrhea” value [2] was 0 n (%) and the “Fatigue” value [2] was 0 n (%). The “GGT increased” value [2] was 0 n (%), the “Hypoalbuminemia” value [2] was 0 n (%) and the “Malaise” value [2] was 0 n (%). For the same compound, the “Nausea (treatment-related adverse event)” value [2] was 0 n (%), the “Neuropathy peripheral” value [2] was 0 n (%) and the “Pyrexia” value [2] was 0 n (%). For the same compound, the “Rash (treatment-related adverse event)” value [2] was 0 n (%), the “Vomiting” value [2] was 0 n (%) and the “WBC decreased” value [2] was 0 n (%). For the same compound, the “ALP increased” value [3] was 0 n (%), the “ALT increased (treatment-related adverse event)” value [3] was 1 (33.3) n (%) and the “AST increased (treatment-related adverse event)” value [3] was 1 (33.3) n (%). For the same compound, the “Anemia (treatment-related adverse event)” value [3] was 0 n (%), the “Blood bilirubin increased” value [3] was 0 n (%) and the “Decreased appetite (treatment-related adverse event)” value [3] was 0 n (%). For the same compound, the “Diarrhea” value [3] was 0 n (%), the “Fatigue” value [3] was 0 n (%) and the “GGT increased” value [3] was 0 n (%). For the same compound, the “Hypoalbuminemia” value [3] was 0 n (%), the “Malaise” value [3] was 0 n (%) and the “Nausea (treatment-related adverse event)” value [3] was 0 n (%). The “Neuropathy peripheral” value [3] was 0 n (%), the “Pyrexia” value [3] was 0 n (%) and the “Rash (treatment-related adverse event)” value [3] was 0 n (%). For the same compound, the “Vomiting” value [3] was 0 n (%), the “WBC decreased” value [3] was 0 n (%) and the “ALP increased” value [4] was 1 (20.0) n (%). For the same compound, the “ALT increased (treatment-related adverse event)” value [4] was 3 (60.0) n (%), the “AST increased (treatment-related adverse event)” value [4] was 3 (60.0) n (%) and the “Anemia (treatment-related adverse event)” value [4] was 0 n (%). For the same compound, the “Blood bilirubin increased” value [4] was 0 n (%), the “Decreased appetite (treatment-related adverse event)” value [4] was 0 n (%) and the “Diarrhea” value [4] was 0 n (%). The “Fatigue” value [4] was 0 n (%), the “GGT increased” value [4] was 3 (60.0) n (%) and the “Hypoalbuminemia” value [4] was 0 n (%). The “Malaise” value [4] was 0 n (%), the “Nausea (treatment-related adverse event)” value [4] was 0 n (%) and the “Neuropathy peripheral” value [4] was 0 n (%). For the same compound, the “Pyrexia” value [4] was 0 n (%), the “Rash (treatment-related adverse event)” value [4] was 0 n (%) and the “Vomiting” value [4] was 0 n (%). The “WBC decreased” value [4] was 1 (20.0) n (%), the “ALP increased” value [5] was 0 n (%) and the “ALT increased (treatment-related adverse event)” value [5] was 0 n (%). For the same compound, the “AST increased (treatment-related adverse event)” value [5] was 0 n (%), the “Anemia (treatment-related adverse event)” value [5] was 0 n (%) and the “Blood bilirubin increased” value [5] was 0 n (%). For the same compound, the “Decreased appetite (treatment-related adverse event)” value [5] was 0 n (%), the “Diarrhea” value [5] was 0 n (%) and the “Fatigue” value [5] was 0 n (%). For the same compound, the “GGT increased” value [5] was 0 n (%), the “Hypoalbuminemia” value [5] was 0 n (%) and the “Malaise” value [5] was 0 n (%). The “Nausea (treatment-related adverse event)” value [5] was 0 n (%), the “Neuropathy peripheral” value [5] was 0 n (%) and the “Pyrexia” value [5] was 0 n (%). For the same compound, the “Rash (treatment-related adverse event)” value [5] was 0 n (%), the “Vomiting” value [5] was 0 n (%) and the “WBC decreased” value [5] was 0 n (%). The “ALP increased” value [6] was 0 n (%), the “ALT increased (treatment-related adverse event)” value [6] was 1 (33.3) n (%) and the “AST increased (treatment-related adverse event)” value [6] was 1 (33.3) n (%). For the same compound, the “Anemia (treatment-related adverse event)” value [6] was 0 n (%), the “Blood bilirubin increased” value [6] was 0 n (%) and the “Decreased appetite (treatment-related adverse event)” value [6] was 0 n (%). The “Diarrhea” value [6] was 0 n (%), the “Fatigue” value [6] was 0 n (%) and the “GGT increased” value [6] was 0 n (%). For the same compound, the “Hypoalbuminemia” value [6] was 0 n (%), the “Malaise” value [6] was 0 n (%) and the “Nausea (treatment-related adverse event)” value [6] was 0 n (%). The “Neuropathy peripheral” value [6] was 0 n (%), the “Pyrexia” value [6] was 0 n (%) and the “Rash (treatment-related adverse event)” value [6] was 0 n (%). The “Vomiting” value [6] was 0 n (%), the “WBC decreased” value [6] was 0 n (%) and the “ALT increased, Grade ≥ 3 treatment-related AE” value (all treated patients) was 31.3%. For the same compound, the “ALT increased, all-grade treatment-related AE” value (all treated patients) was 68.8%, the “AST increased, Grade ≥ 3 treatment-related AE” value (all treated patients) was 31.3% and the “AST increased, all-grade treatment-related AE” value (all treated patients) was 62.5%. For the same compound, the “alkaline phosphatase (ALP) increased, all-grade treatment-related AE” value (all treated patients) was 43.8%, the “decreased appetite, all-grade treatment-related AE” value (all treated patients) was 31.3% and the “nausea, all-grade treatment-related AE” value (all treated patients) was 43.8%. For the same compound, the “drug-induced liver injury by Hy's law criteria” value (doses of up to 56 mg/m^2) was “No patients presented with drug-induced liver injury”, the “treatment-related serious AE” value (weekly dosing level 4, resolved following TAS4464 dose reduction) was “ALT increased occurring in one patient” and the “serious AEs” value (whole study) was “Four serious AEs were reported in three patients”. The “deaths or fatal AEs” value (within the study period) was “No deaths or fatal AEs occurred”.
